From PMC5570288, “Hot-spot identification on a broad class of proteins and RNA suggest unifying principles of molecular recognition” (PLoS ONE, 2017) come the findings set out here.

The target in this experiment is T1, RecA (Escherichia coli, UniProt P0A7G6).
T1 construct: assay 'as previously described'; homo-oligomer
Nature of the experiment: coupled ATPase assay, ADP to H2O2, amplex red / resorufin fluorescence. Format: biochemical.

T1 sequence (P0A7G6 2-353): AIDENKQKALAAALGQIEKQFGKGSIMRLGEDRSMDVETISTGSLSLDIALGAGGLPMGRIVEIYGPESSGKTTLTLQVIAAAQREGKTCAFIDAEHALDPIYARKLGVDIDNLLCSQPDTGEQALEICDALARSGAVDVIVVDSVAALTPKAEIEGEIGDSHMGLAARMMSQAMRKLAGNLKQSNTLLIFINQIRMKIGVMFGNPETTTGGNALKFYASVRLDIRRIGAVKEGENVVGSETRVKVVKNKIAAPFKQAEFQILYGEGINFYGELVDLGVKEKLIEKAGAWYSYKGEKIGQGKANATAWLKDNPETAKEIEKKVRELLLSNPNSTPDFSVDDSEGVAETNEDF

One may read the IC50 as the concentration at which inhibition is half-maximal. A lower IC50 goes with inhibition by little substance. With `NCCc1cc(O)c(O)cc1O` [6-hydroxydopamine], the concentration for half-maximal inhibition (IC50) was 23 µM.
